Assay [1] concerns the target interaction between Fc conjugated LRRC4B (amino acids 453-576) protein fragment and FAM19A5 protein (Homo sapiens, UniProt Q7Z5A7). Nature of the assay: Competitive inhibition assay of chemical compounds, plate coated with Fc conjugated LRRC4B fragment (453-576). It is filed as binding. The settings on record: for effect of increasing concentration on LRRC4B-FAM19A5 interaction (in words): increasing concentrations. As to the method:
In particular, the following compounds were produced: (1) KB734, (2) KB761, (3) KB763, (4) KB1157, (5) KB1161, (6) KB1542, (7) KB1543, (8) KB2256, (9) KB2258, (10) KB2310, (11) KB2357, (12) KB2718, (13) KB2719, (14) KB3111, (15) KB3112, (16) KB3220, (17) KB3201, (18) KB3250, and (19) KB3251. Then, the ability of the above chemical compounds to inhibit the binding of LRRC4 protein family members to FAM19A5 protein was assessed using a competitive inhibition assay. Briefly, ELISA plates were coated with 100 nM of a Fc conjugated LRRC4B fragment (amino acids 453-576 of SEQ ID NO: 2; SEQ ID NO: 7). Then, recombinant FAM19A5 protein (1 ng/mL) was added to the plates in combination with one of the above chemical compounds (100 μM). Recombinant FAM19A5 protein alone (“CTRL”) or in combination with DMSO was used as control. The plates were incubated at 37° C. and then, the amount of FAM19A5 protein bound to the coated LRRC4B protein fragment was assessed using HRP-conjugated anti-FAM19A5 (1-65) antibody.
Next, to assess whether increasing the concentration of the chemical compounds could improve the inhibitory effect, increasing concentrations of KB734, KB2310, and KB2357 compounds were subjected to the same competitive inhibition assay described above.
To further assess the inhibitory effect of the KB2357 chemical compound on FAM19A5 protein and members of the LRRC4 protein family, the following derivatives of the KB2357 compound were synthesized as described earlier: (1) KB2304, (2) KB2305, (3) KB2308, (4) KB2309, (5) KB2314, (6) KB2315, (7) KB2324, (8) KB2325, (9) KB2328, (10) KB2329, (11) KB2336, (12) KB2337, (13) KB2350, (14) KB2356, (15) KB2358, (16) KB2359, (17) KB2369, (18) KB2372, and (19) KB2399. The derivative compounds were also tested in the competitive inhibition assay as described above.

In assay [2] the target is hFc-fused hLRRC4B and FAM19A5 complex formation (Homo sapiens, UniProt Q7Z5A7). Put plainly: Competitive inhibition assay (IC50), plate coated with LRRC4B(453-576, TT/TT)-hFc. It is filed as binding. The note with it: for IC50: Table 14, LRRC4B(453-576, TT/TT)-hFc 100 nM coat, peptide 0.03-1000 nM, read-out: IC50 (nM), Inhibition on Complex Formulation between human LRRC4B protein and recombinant FAM19A5 protein (1 ng/mL). As to the method:
The in silico analysis provided in Example 9 highlighted that certain T12 and L13 double mutants might be important in improving the binding affinity of the polypeptides of the present disclosure to the FAM19A5 protein. Therefore, the ability of both the wild-type FB-21 peptide (which is the same as the FB-20 peptide described herein except that the FB-21 peptide additionally contains an alanine at the C-terminus) and several FB-21 mutants were tested for their inhibitor effect on hFc-fused hLRRC4B and FAM19A5 complex formation. Briefly, plate was coated with 100 nM of LRRC4B(453-576, TT/TT)-hFc and then 1 ng/ml of rFAM19A5 was incubated at 37° C. in the presence of increasing concentrations of the different FB-21 peptide fragments (0.03, 0.1, 0.3, 1, 3, 10, 30, 100, 300 and 1000 nM). The LRRC4B-bound FAM19A5 levels were measured using HRP-conjugated 1-65 antibody.

The target in assay [3] is interaction between His-TEV LRRC4B and rFAM19A5 (Homo sapiens, UniProt Q7Z5A7). Put plainly: Competitive inhibition assay (IC50), plate coated with His-TEV LRRC4B. The format is binding. The note with it: for IC50: Table 15, His-TEV LRRC4B 100 nM coat, peptide 0.3-10000 nM, read-out: IC50 (nM), Inhibition on Complex Formulation between LRRC4B protein and recombinant FAM19A5 protein (1 ng/ml). As to the method: To further assess the inhibitory effect of the FB-21 mutants, the ability of additional FB-21 mutants described in Example 9 were tested for their ability to inhibit the interaction between FAM19A5 protein and LRRC4B protein. Briefly, plates were coated with 100 nM of His-TEV LRRC4B and then 1 ng/mL of rFAM19A5 was incubated at 37° C. in the presence of increasing concentrations of the FB-21 peptide fragments (0.3, 1, 3, 10, 30, 100, 300, 1000, 3000 and 10000 nM). The LRRC4B-bound FAM19A5 levels were measured using HRP-conjugated 1-65 SS01 antibody. As shown in FIG. 22B (see Table 15 for IC50), most (if not all) of the FB-21 mutants had improved ability in inhibiting the interaction between LRRC4B and recombinant FAM19A5 protein.
Next, to assess whether other properties of the polypeptides described herein can be improved (e.g., solubility, prevention of degradation from protease and peptidase, and in vivo administration), the following additional FB-21 peptide mutants were constructed and tested for their ability to inhibit the interaction between FAM19A5 protein and LRRC4B: (1) d-form FB-21 peptide (“dFB-21”), (2) d-form FB-21 peptide with juxta-membrane (JM) sequence (“dFB-JM-31”), (3) d-form FB-21 peptide with BBB penetrating sequence at each end of the sequence (“dFB-BBB-39”), and (4) d-form FB-21 mutant peptide with DY replacement and additional JM sequence (“dFB-DY-JM31”). The sequence for d-form FB-21 peptide is set forth in SEQ ID NO: 153 (nYTYFTTVTVETLETQPGEEa; wherein the lowercase amino acids represent D-form of the amino acid, and the uppercase amino acids represent L-form of the amino acid). The sequence for dFB-BBB-39 is set forth in SEQ ID NO: 154 (n[…]l; wherein the lowercase amino acids represent D-form of the amino acid, and the uppercase amino acids represent L-form of the amino acid). The sequence for dFB-JM-31 is set forth in SEQ ID NO: 155 (n[…]a; wherein the lowercase amino acids represent D-form of the amino acid, and the uppercase amino acids represent L-form of the amino acid). The sequence for dFB-DY-JM31 is set forth in SEQ ID NO: 156 (n[…]a; wherein the lowercase amino acids represent D-form of the amino acid, and the uppercase amino acids represent L-form of the amino acid). The overall experimental methods were the same as those described immediately above.

The target in assay [4] is T1, FAM19A5 protein (Homo sapiens, UniProt Q7Z5A7). Nature of the assay: ELISA binding of recombinant FAM19A5 to coated hFc-conjugated LRRC4 family ectodomains, fragments or synthetic peptides. The settings on record: coated 100 nM/well, FAM19A5 up to 10 nM. As to the method:
Next, to confirm the above co-immunoprecipitation results, an ELISA assay was used to measure the binding of the FAM19A5 protein to either the full-length ectodomain of members of LRRC4 protein family or various LRRC4B ectodomain protein fragments. Specifically, an ELISA plate was coated with one of the following LRRC4B ectodomain protein, which was conjugated to human Fc (100 nM/well): (1) full-length ectodomain of LRRC4 protein (amino acid residues 39-527 of SEQ ID NO: 1) (SEQ ID NO: 4); (2) full-length ectodomain of LRRC4B protein (amino acids 36-576 of SEQ ID NO: 2; i.e., construct #7 in Table 6) (SEQ ID NO: 5); (3) full-length ectodomain of LRRC4C protein (amino acids 45-527 of SEQ ID NO: 3) (SEQ ID NO: 6); (4) LRRC4B ectodomain fragment (amino acids 453-576 of SEQ ID NO: 2; i.e., construct #11 in Table 6) (SEQ ID NO: 7); (5) LRRC4B ectodomain fragment (amino acids 484-576 of SEQ ID NO: 2; i.e., construct #12 in Table 6) (SEQ ID NO: 8); (6) LRRC4B ectodomain fragment (amino acids 482-576 of SEQ ID NO: 2) (SEQ ID NO: 9); (7) LRRC4B ectodomain fragment (amino acids 482-497 of SEQ ID NO: 2) (SEQ ID NO: 10); and (8) LRRC4B ectodomain fragment (amino acids 498-576 of SEQ ID NO: 2; i.e., construct #13 in Table 6) (SEQ ID NO: 11). Then, recombinant FAM19A5 proteins (0.005, 0.01, 0.025, 0.05, 0.1, 0.25, 0.5, 1, 2.5, 5, and 10 nM) were added to the relevant wells, and the plates were incubated at 37° C. for 1 hour. Afterwards, the amount of LRRC4B-bound FAM19A5 protein was detected using HRP-conjugated anti-FAM19A5 (1-65) antibody.
As further confirmation, three synthetic polypeptides comprising amino acids 484-497 of SEQ ID NO: 2 (i.e., YTYFTTVTVETLET; SEQ ID NO: 65) were constructed: (1) FB-16 (GYTYFTTVTVETLETQ; SEQ ID NO: 17), (2) FB-20 ([…]; SEQ ID NO: 18), and (3) FB-28 ([…]; SEQ ID NO: 19). The peptides differed in their total length. The ability of these polypeptides to bind to recombinant FAM19A5 protein was assessed using an ELISA assay as described above.
In general terms: An ELISA detects its analyte on a solid surface through an enzyme-linked reagent.
Target sequence in this assay (Q7Z5A7 44-132): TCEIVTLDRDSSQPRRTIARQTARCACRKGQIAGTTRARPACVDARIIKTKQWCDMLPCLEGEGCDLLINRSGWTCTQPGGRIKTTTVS

For assay [5], the system named is mouse primary cortical neurons. Nature of the assay: Neurite growth of mouse primary cortical neurons in vitro. It is filed as cell-based. The settings on record: treated days 1 and 2, assessed day 3, anti-beta-tubulin III; LRRC4B fragment 0.006 to 60 nM; versus control. As to the method:
Next, primary cortical neurons (day 1 postnatal) were cultured in vitro with varying concentrations (0.006 to 60 nM) of the LRRC4B (453-576) protein fragment (i.e., amino acid residues 453-576 of SEQ ID NO: 2; SEQ ID NO: 7), and then at day 3 post-initial culture, the effect on neurite growth was assessed by immunostaining the cells with anti-beta-tubulin III antibody. Cells cultured with DMSO (“Veh”) were used as control.
Mouse hippocampal neurons were treated with LRRC4B peptides at 1 and 2 DIV to determine neurite growth. It was measured by using 3 different parameters, which are total neurites length, number of primary and secondary neurites. After the neurons were stained with beta-tubulin III at 3 DIV, neurites length and branch points were measured using Fiji (Image J, NIH, Bethesda). Individual neurons were selected by hand and these parameters were counted using the Simple neurite tracer plugin. Mouse spinal motor neurons sampled at postnatal day 1 were treated with 10 nM of NS101 and LRRC4B-peptides (dFB-dWY-JM31 and dFB-DY-JM31) at 1 and 2 DIV and immunostained with Tau-5 antibody at 3 DIV. Total neurite length and number of somas in images were measured by Neurphology Image J plugin.

Assay [6] addresses T1, FAM19A5 protein. Nature of the assay: competitive inhibition ELISA, 20 nM peptide, rFAM19A5 5 ng/mL; competitor: coated LRRC4B(36-576)-hFc.
Assay [7] addresses T1, FAM19A5 protein. Nature of the assay: competitive inhibition ELISA, 20 nM peptide, rFAM19A5 1 ng/mL; competitor: coated LRRC4B(453-576)-hFc.

Square brackets hold non-standard residues; d marks the D form. Ends that are not written are not given here.

Chain of interaction between Fc conjugated LRRC4B (amino acids 453-576) protein fragment and FAM19A5 protein (Q7Z5A7 44-132): as above

In the case of `CCCCC[C@@H](O)C#Cc1ccc(O)c(OC)c1` [KB2357, (R)-4-(3-Hydroxyoct-1-yn-1-yl)-2-methoxyphenol], the “reduction of interaction between FAM19A5 and the coated LRRC4B protein fragment compared to the controls” value in assay [1] (100 μM compound, FAM19A5 1 ng/mL) was “about 10%”. In addition, the “effect of increasing concentration on LRRC4B-FAM19A5 interaction (in words)” value (shortened to “effect of increasing concentration”) in assay [1] is recorded as “greater reduction in the interaction”.
With `CCCCCC(O)/C=C\c1ccc(O)c(OC)c1` (stereo not drawn) [KB2356, (Z)-4-(3-Hydroxyoct-1-en-1-yl)-2-methoxyphenol], the “effect of increasing concentration” value in assay [1] is reported as “able to reduce the interaction in a dose-dependent manner”.
Take GYTYFTTVTVEWYETQPGEEA [FB-21 (W12Y13)]: the IC50 in assay [2] came to 4.1 nM; in assay [3], 46.7 nM. In assay [2] (from IC50 of Table 14), the “increase in ability to dissociate the LRRC4B-FAM19A5 complex compared with wild-type FB-21” value amounted to 2.9 folds.
As for GYTYFTTVTVEDYETQPGEE [FB-21 (D12Y13)], in assay [3] (from IC50 of Table 15), the “fold more effective in dissociating LRRC4B-FAM19A5 complex formation compared to FB-21” value is 2.4 fold and the “fold more effective in dissociating LRRC4B-FAM19A5 complex formation compared to FB-21 (W12Y13)” value is given as 7 fold.
As to “GYTYFTTVTVETLETQPGEEA [FB-21 (wild-type)]”, the IC50 was 11.9 nM in assay [2] and 138 nM in assay [3].
On to “nYTYFTTVTVEDYETQPGEEALDEVMKTTKa ([dN]YTYFTTVTVEDYETQPGEEALDEVMKTTK[dA]; also: terminal modifications n and a on first and last residues) [dFB-DY-JM31]”, for which the “fold more effective in inhibiting complex formation compared to the wild-type FB-21” value in assay [3] (FIG. 22C, D-form amino acids at both termini) was 4 fold.
Turning to GYTYFTTVTVETLETQ [FB-16], the “binding to FAM19A5 protein (ELISA, in words)” value with FAM19A5 protein [4] is given as “able to bind to recombinant FAM19A5 protein with high affinity”. The “neurite growth / neurite outgrowth” value in assay [5] is on record as “Increased neurite outgrowth”.
Regarding `CCCCC[C@H](O)C#Cc1ccc(O)c(OC)c1` [KB2358, (S)-4-(3-Hydroxyoct-1-yn-1-yl)-2-methoxyphenol], in assay [1], the “effect of increasing concentration” value is on record as “able to reduce the interaction in a dose-dependent manner”.

B1: FBC4C-23 (peptide)
peptide: NFSYFSTVTVETMEPSQDERTTR
B1: the Inhibition rate (%) with FAM19A5 protein [6] is 65.7%; with FAM19A5 protein [7], 40.4%.

B2: FBC4-23 (peptide)
peptide: NYSFFTTVTVETTEISPEDTTRK
B2: the Inhibition rate (%) turned out to be 64.1% in the assay with FAM19A5 protein [6] and 40.4% with FAM19A5 protein [7].

The values above are taken from US20240238445A1, “INHIBITORS AND USES THEREOF” (NEURACLE SCIENCE CO., LTD., priority 2021, published 2024).
